# Assays:
# [1] = biological target: T1, DHPS (Homo sapiens, UniProt P49366); test: Hyp'Assay: cell-free eIF5A hypusination in 96-well plates (recombinant eIF5A, DHPS, DOHH; anti-hypusine antibody Hpu24), substance present in the DHPS step; type: biochemical; details: for hypusination signal, Mean (quantification from Figure 3B): control 100,0; for concentration from which inhibition of hypusination was detectable / hypusination signal, Mean (quantification from Figure 5A): 5 μM spermidine; for hypusination signal, Mean (quantification from Figure 5A): control 98,5
# T1 construct: host or cells: E. coli BL21 (DE3)
# T1 sequence (P49366 1-369): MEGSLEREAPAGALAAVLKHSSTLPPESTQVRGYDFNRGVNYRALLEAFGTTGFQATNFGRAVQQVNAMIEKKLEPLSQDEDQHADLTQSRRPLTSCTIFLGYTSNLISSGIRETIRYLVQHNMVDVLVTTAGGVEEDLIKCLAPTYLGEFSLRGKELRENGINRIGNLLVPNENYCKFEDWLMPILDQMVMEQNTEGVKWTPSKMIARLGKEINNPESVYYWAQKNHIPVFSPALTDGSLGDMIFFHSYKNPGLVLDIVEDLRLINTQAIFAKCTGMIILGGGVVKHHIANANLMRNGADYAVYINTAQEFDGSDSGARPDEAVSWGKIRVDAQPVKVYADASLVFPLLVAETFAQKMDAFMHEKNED
# Method: The principle of the Hyp’Assay (Fig 2A) is to perform eIF5A hypusination reaction in 96-well plates, allow eIF5A to adsorb to the plate, incubate with an anti-hypusine antibody and a secondary antibody conjugated to HRP and reveal hypusination using TMB as a substrate.
# (§1) […] Then 10 μL containing 1 μg of DOHH with 10 μM Fe^2+ (H8FeN2O8S2^. 6H2O) were added. After 1 h proteins were analyzed by Western Blot using antibodies toward DHPS, DOHH, Hypusine, and eIF5A.
# (§2) The cell-free reaction described in 4.4 is performed in triplicates in a 96-wells plate (MaxiSorp, ThermoFisher) in the presence of 3 μg of eIF5A, 2 μg of DHPS, and 2 μg of DOHH by well. The reaction product, hypusinated eIF5A, is adsorbed onto the plate overnight at 4°C. The plate is washed (100 μL/well) thrice with PBS-T (PBS– 0.05% Tween20), then saturated with 1% non-fat dry milk in PBS-T for 2 h at room temperature. The plate is washed thrice with PBS-T and incubated overnight at 4°C with the anti-hypusine antibody (1:2000 in saturation buffer, 50 μL/well). The next day and after 5 washes with PBS-T, HRP-coupled anti-rabbit secondary antibody diluted 1:5000 in saturation buffer (50 μL/well) is added for 2 h at room temperature.
# [2] = biological target: T2, DOHH (Homo sapiens, UniProt Q9BU89); test: Hyp'Assay, substance added after the deoxyhypusination reaction (DOHH step); type: biochemical; details: for hypusination signal, Mean (quantification from Figure 3C): control 100,0
# T2 construct: pelB leader (N); host or cells: E. coli BL21 (DE3)
# T2 sequence (Q9BU89 1-302): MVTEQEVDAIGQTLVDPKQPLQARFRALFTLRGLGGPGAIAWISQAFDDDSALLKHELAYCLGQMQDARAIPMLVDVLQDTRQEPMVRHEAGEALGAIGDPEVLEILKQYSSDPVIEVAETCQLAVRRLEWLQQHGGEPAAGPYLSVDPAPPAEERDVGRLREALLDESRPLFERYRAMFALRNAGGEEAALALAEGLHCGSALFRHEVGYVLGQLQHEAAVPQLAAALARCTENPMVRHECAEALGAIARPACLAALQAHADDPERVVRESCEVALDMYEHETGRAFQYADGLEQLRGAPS
# Method: We then tested the ability of DOHH inhibitors to inhibit eIF5A hypusination using the Hyp’Assay. During the Hyp’Assay, DOHH inhibitors were added after the deoxyhypusination reaction.
# To address this issue, we compared the ability of GC7 to inhibit DHPS or DOHH by adding GC7 during the first step of the Hyp’Assay; when DHPS mediates the deoxyhypusination reaction (Fig 2A), or only during the second step, when DOHH hydroxylate deoxyhypusinated eIF5A. […] When finding new hypusination inhibitors adding them during the first or the second step of the Hyp’Assay will allow us to determine if the inhibition affects DHPS or DOHH. Another way to discriminate between DHPS or DOHH inhibitors would be to use Hpu98, an antibody that recognized both hypusinated and deoxyhypusinated eIF5A, instead of Hpu24, which is specific for hypusinated eIF5A [18]. […] We performed a new Hyp’Assay by omitting DOHH in the reaction mix and using the Hpu98 antibody. First, we performed a dose response experiment with spermidine at pH: 8.0 and 9.0 (Fig 3E). […] We also tested the ability of GC7 (Fig 3F) and CPX or EDTA (Fig 3G) to inhibit DHPS.
# as §1, §2
# [3] = biological target: T1, DHPS; test: Hyp'Assay without DOHH: deoxyhypusination of eIF5A revealed with Hpu98 antibody; type: biochemical; details: 5 μM spermidine; CTRL 100,0; inhibitor concentration not given
# Excerpt: To address this issue, we compared the ability of GC7 to inhibit DHPS or DOHH by adding GC7 during the first step of the Hyp’Assay; when DHPS mediates the deoxyhypusination reaction (Fig 2A), or only during the second step, when DOHH hydroxylate deoxyhypusinated eIF5A. […] This confirms the specificity of GC7 towards DHPS. When finding new hypusination inhibitors adding them during the first or the second step of the Hyp’Assay will allow us to determine if the inhibition affects DHPS or DOHH. Another way to discriminate between DHPS or DOHH inhibitors would be to use Hpu98, an antibody that recognized both hypusinated and deoxyhypusinated eIF5A, instead of Hpu24, which is specific for hypusinated eIF5A [18]. […] We performed a new Hyp’Assay by omitting DOHH in the reaction mix and using the Hpu98 antibody. First, we performed a dose response experiment with spermidine at pH: 8.0 and 9.0 (Fig 3E). The Hyp’Assay allows the detection of deoxyhypusinated eIF5A in a spermidine-dependent manner. Under these conditions, deoxyhypusination was equally efficient at both pH tested. […] We also tested the ability of GC7 (Fig 3F) and CPX or EDTA (Fig 3G) to inhibit DHPS. […] This provided us with another method to distinguish between DHPS and DOHH inhibitors.
# as §2
# [4] = test system: eIF5A hypusination in MCF7 cells; test: eIF5A hypusination in intact MCF7 cells, Western blot; type: cell-based, human; details: 40 μM, 24 h, Ctrl 100, 4 experiments
# Method: We tested the ability of the GC7 analogs to inhibit hypusination in intact cells. MCF-7 cells (Fig 5B), a classical model of breast cancer cell line, and HT29 cells (Fig 5C), a cell model of colorectal cancer, were treated with 40 μM of GC7, 1, 2, 3, and 4 for 24h. Cells were lysed and analyzed by Western blot. As observed, none of the molecules modified eIF5A expression. […] GC7 analogs inhibited hypusination from 35 to 55%.
# The human breast cancer cell line MCF7 (HTB-22 ATCC) and colorectal adenocarcinoma HT29 (HTB-38 ATCC) were cultured in DMEM (Gibco) supplemented with 10% FBS (Dutscher), 10 U/mL penicillin, and […] streptomycin. 1 mM of aminoguanidine was added to the medium to inhibit the degradation of GC7 and polyamines by amine oxidase from the serum and the production of reactive oxygen species. Cells were maintained at 37°C, 5% CO2 in a humid atmosphere.
# After treatment, cells were washed with ice-cold PBS and lysed in RIPA Buffer (50 mM Tris pH 7.5, 150 mM NaCl, 0.1% SDS, 0.5% Na Deoxycholate, 5 mM NaF, 2.5 mM Na4P2O7, 1% NP4O) containing a protease inhibitor cocktail (complete Roche). 10 μg of proteins were separated by SDS PAGE and transferred to a PVDF membrane (Immobilon-P Millipore). The membranes were probed with the appropriate primary antibody that was detected by horseradish peroxidase-conjugated secondary antibody (Jackson Immunoresearch) and visualized by chemiluminescence (ECL Amersham RPN 3244) using a Fuji LAS-4000 imager. ImageJ® software was used to quantify band intensity and the ratios of proteins of interest were normalized to a loading control. Full-length Western blots are provided in the supplementary data (S19, S20 Figs).
# [5] = concentration 1 (no unit on page; Fig 3B dose-response 0 to 1 mM)
# [6] = concentration 10 (no unit on page; Fig 3B dose-response 0 to 1 mM)
# [7] = concentration 100 (no unit on page; Fig 3B dose-response 0 to 1 mM)
# [8] = concentration 1000 (no unit on page; Fig 3B dose-response 0 to 1 mM)
# [9] = concentration 1 (no unit on page; Fig 3C dose-response 0 to 100 μM)
# [10] = concentration 10 (no unit on page; Fig 3C dose-response 0 to 100 μM)
# [11] = concentration 100 (no unit on page; Fig 3C dose-response 0 to 100 μM)
# [12] = concentration 1 (no unit on page; Fig 5A 0 to 1 mM)
# [13] = concentration 10 (no unit on page; Fig 5A 0 to 1 mM)
# [14] = concentration 100 (no unit on page; Fig 5A 0 to 1 mM)
# [15] = concentration 1000 (no unit on page; Fig 5A 0 to 1 mM)
compound,measurement,setting,value
"CCNCCCNCCCNCCCNCC [BENSPM, N1,N11-diethylnorspermine]",decrease in hypusination,[1]; at 100 μM,12%
same,inhibition of hypusination,[1]; at 1 mM,43%
same,"hypusination signal, Mean (quantification from Figure 3B)",[1]; [5],"97,3"
same,"hypusination signal, Mean (quantification from Figure 3B)",[1]; [6],"101,9"
same,"hypusination signal, Mean (quantification from Figure 3B)",[1]; [7],"88,5"
same,"hypusination signal, Mean (quantification from Figure 3B)",[1]; [8],"42,9"
"Cc1cc(C2CCCCC2)n(O)c(=O)c1 [CPX, ciclopirox]","hypusination signal, Mean (quantification from Figure 3C)",[2]; [9],"97,78"
same,"hypusination signal, Mean (quantification from Figure 3C)",[2]; [10],"85,18"
same,"hypusination signal, Mean (quantification from Figure 3C)",[2]; [11],"55,02"
same,maximal inhibition,[2]; dose-response 0 to 100 μM,50%
same,"Relative deoxyhypusination of eIF5A, Mean (quantification from Figure 3F, 3G)",[3],"101,2 a.u"
"CC(=O)N(O)CCCCCNC(=O)CCC(=O)N(O)CCCCCNC(=O)CCC(=O)N(O)CCCCCN [DFX, deferoxamine]","hypusination signal, Mean (quantification from Figure 3C)",[2]; [9],"28,29"
same,"hypusination signal, Mean (quantification from Figure 3C)",[2]; [10],"58,42"
same,"hypusination signal, Mean (quantification from Figure 3C)",[2]; [11],"34,21"
C[S+](C)[O-] [DMSO],inhibition of hypusination,[1]; 10% DMSO of the total reaction mixture,33%
same,effect on hypusination of eIF5A,[1]; standard concentrations of DMSO (less than 10%),not affected
O=C(O)CN(CCN(CC(=O)O)CC(=O)O)CC(=O)O [EDTA],maximal inhibition,[2]; at 100 μM EDTA,80%
same,"Relative deoxyhypusination of eIF5A, Mean (quantification from Figure 3F, 3G)",[3],"97,63 a.u"
"Nc1nc(=O)c2nc(CNc3ccc(C(=O)N[C@@H](CCC(=O)O)C(=O)O)cc3)cnc2[nH]1 [Folate, folic acid]",inhibition at 1 µM,[2]; at 1 μM,50%
same,"hypusination signal, Mean (quantification from Figure 3C)",[2]; [9],"56,38"
same,"hypusination signal, Mean (quantification from Figure 3C)",[2]; [10],"57,32"
same,"hypusination signal, Mean (quantification from Figure 3C)",[2]; [11],"65,33"
"N=C(N)NCCCCO [compound 1, 4-hydroxybutylguanidine]",concentration from which inhibition of hypusination was detectable,[1],1 µM
same,"hypusination signal, Mean (quantification from Figure 5A)",[1]; [12],"70,7"
same,"hypusination signal, Mean (quantification from Figure 5A)",[1]; [13],"62,5"
same,"hypusination signal, Mean (quantification from Figure 5A)",[1]; [14],"61,5"
same,"hypusination signal, Mean (quantification from Figure 5A)",[1]; [15],"55,2"
same,"hypusinated eIF5A, Western blot quantification, Mean (Figure 5B)",[4],65
"N=C(N)NCCCCCCO [compound 2, 6-hydroxyhexylguanidine]",concentration from which inhibition of hypusination was detectable,[1],1 µM
same,"hypusination signal, Mean (quantification from Figure 5A)",[1]; [12],"81,3"
same,"hypusination signal, Mean (quantification from Figure 5A)",[1]; [13],"64,4"
same,"hypusination signal, Mean (quantification from Figure 5A)",[1]; [14],"59,1"
same,"hypusination signal, Mean (quantification from Figure 5A)",[1]; [15],"44,6"
same,"hypusinated eIF5A, Western blot quantification, Mean (Figure 5B)",[4],44.5
NCCCCN [putrescine],inhibition at 1000 µM,[1]; at 1 mM,70%
same,"hypusination signal, Mean (quantification from Figure 3B)",[1]; [5],"111,3"
same,"hypusination signal, Mean (quantification from Figure 3B)",[1]; [6],"94,6"
same,"hypusination signal, Mean (quantification from Figure 3B)",[1]; [7],"95,3"
same,"hypusination signal, Mean (quantification from Figure 3B)",[1]; [8],"30,5"
NCCCNCCCCNCCCN [spermine],"hypusination signal, Mean (quantification from Figure 3B)",[1]; [5],"106,1"
same,"hypusination signal, Mean (quantification from Figure 3B)",[1]; [6],"114,0"
same,"hypusination signal, Mean (quantification from Figure 3B)",[1]; [7],"104,5"
same,"hypusination signal, Mean (quantification from Figure 3B)",[1]; [8],"111,4"
same,effect on eIF5A hypusination,[1]; concentrations up to 1 mM,did not affect eIF5A hypusination
same,use as alternate DHPS substrate,[1]; dose response compared with spermidine (S3 Fig),"can be used as a substrate by DHPS in the Hyp’Assay, although with lower efficiency than spermidine"
same,"hypusination signal with the substance as substrate, Mean (quantification from Figure S3)","[1]; substrate concentration 0,01 (mM)","-0,07"
same,"hypusination signal with the substance as substrate, Mean (quantification from Figure S3)","[1]; substrate concentration 0,1 (mM)","0,01"
same,"hypusination signal with the substance as substrate, Mean (quantification from Figure S3)","[1]; substrate concentration 0,0001 (mM)","0,19"
same,"hypusination signal with the substance as substrate, Mean (quantification from Figure S3)","[1]; substrate concentration 0,001 (mM)","-0,08"
same,"hypusination signal with the substance as substrate, Mean (quantification from Figure S3)",[1]; substrate concentration 1 (mM),"2,17"
same,"hypusination signal with the substance as substrate, Mean (quantification from Figure S3)",[1]; substrate concentration 10 (mM),"21,70"
same,"hypusination signal with the substance as substrate, Mean (quantification from Figure S3)",[1]; substrate concentration 100 (mM),"39,64"
same,"hypusination signal with the substance as substrate, Mean (quantification from Figure S3)",[1]; substrate concentration 1000 (mM),"28,97"
same,"hypusination signal, Mean (quantification from Figure 3C)",[2]; [9],"69,38"
same,"hypusination signal, Mean (quantification from Figure 3C)",[2]; [10],"59,12"
same,"hypusination signal, Mean (quantification from Figure 3C)",[2]; [11],"54,32"
